Assay results taken from US20140163061A1, “Methods For Reducing Blood Pressure” (FibroGen, Inc., priority 2008, published 2014).

System: human subjects with chronic kidney disease
Test: Blood pressure in human CKD subjects over a 24 hour period after oral dosing, Example 5
Assay type: in vivo
Protocol: Hypertension is a common condition in patients with chronic kidney disease. (Agarwal et al. (2005) Hypertension 46:514-520.) The effect of a compound of the present invention on blood pressure in anemic and non-anemic human subjects with advanced stage chronic kidney disease was examined. All study subjects had chronic kidney disease (CKD), defined as having a glomerular filtration rate (GFR)<59 ml/min. Some of these CKD subjects also had anemia, defined as having hemoglobin (Hb) levels<11 g/dL. Subjects were orally administered compound A or a placebo two or three times per week for four weeks. Blood pressure readings (i.e. systolic, diastolic, and mean arterial pressure) were taken at various times with a sphygmomanometer according to standard assessments. In one series of experiments, the effect of methods and medicaments of the present invention on blood pressure in anemic and non-anemic subjects with advanced stage chronic kidney disease was examined over a 24 hour period. Subjects were orally administered compound A or a placebo and blood pressure readings were taken at 1, 2, 3, 4, 6, 12, and 24 hours following treatment. […] Table 3, Table 4, and Table 5 below show hourly changes in mean arterial pressure (MAP), systolic blood pressure (SBP), and diastolic blood pressure (DBP) following oral administration of […] to human CKD subjects.

## Cc1nc(C(=O)NCC(=O)O)c(O)c2ccc(Oc3ccccc3)cc12 [A, [(4-hydroxy-1-methyl-7-phenoxy-isoquinoline-3-carbonyl)-amino]-acetic acid]
All Subjects, 3 hour
  Mean change from Baseline Diastolic BP (mmHg): −5.45 mmHg
  Mean change from Baseline MAP (mmHg): −4.35 mmHg
  Mean change from Baseline Systolic BP (mmHg): −2.09 mmHg
All Subjects, 4 hour
  Mean change from Baseline Diastolic BP (mmHg): −6.36 mmHg
  Mean change from Baseline MAP (mmHg): −6.60 mmHg
  Mean change from Baseline Systolic BP (mmHg): −7.00 mmHg
All Subjects, 6 hour
  Mean change from Baseline Diastolic BP (mmHg): −7.00 mmHg
  Mean change from Baseline MAP (mmHg): −9.18 mmHg
  Mean change from Baseline Systolic BP (mmHg): −13.45 mmHg
All Subjects, 12 hour
  Mean change from Baseline Diastolic BP (mmHg): −2.55 mmHg
  Mean change from Baseline MAP (mmHg): −3.29 mmHg
  Mean change from Baseline Systolic BP (mmHg): −4.73 mmHg
All Subjects, 24 hour
  Mean change from Baseline Diastolic BP (mmHg): −1.55 mmHg
  Mean change from Baseline MAP (mmHg): −2.55 mmHg
  Mean change from Baseline Systolic BP (mmHg): −4.45 mmHg
Anemic, 3 hour
  Mean change from Baseline Diastolic BP (mmHg): −13.67 mmHg
  Mean change from Baseline MAP (mmHg): −11.10 mmHg
  Mean change from Baseline Systolic BP (mmHg): −6.33 mmHg
Anemic, 4 hour
  Mean change from Baseline Diastolic BP (mmHg): −12.67 mmHg
  Mean change from Baseline MAP (mmHg): −14.67 mmHg
  Mean change from Baseline Systolic BP (mmHg): −19.00 mmHg
Anemic, 6 hour
  Mean change from Baseline Diastolic BP (mmHg): −10.00 mmHg
  Mean change from Baseline MAP (mmHg): −12.33 mmHg
  Mean change from Baseline Systolic BP (mmHg): −17.33 mmHg
Anemic, 12 hour
  Mean change from Baseline Diastolic BP (mmHg): −5.00 mmHg
  Mean change from Baseline MAP (mmHg): −2.00 mmHg
  Mean change from Baseline Systolic BP (mmHg): 3.67 mmHg
Anemic, 24 hour
  Mean change from Baseline Diastolic BP (mmHg): −3.33 mmHg
  Mean change from Baseline MAP (mmHg): −3.77 mmHg
  Mean change from Baseline Systolic BP (mmHg): −5.00 mmHg
Non-Anemic, 3 hour
  Mean change from Baseline Diastolic BP (mmHg): −2.38 mmHg
  Mean change from Baseline MAP (mmHg): −3.81 mmHg
  Mean change from Baseline Systolic BP (mmHg): −0.50 mmHg
Non-Anemic, 4 hour
  Mean change from Baseline Diastolic BP (mmHg): −4.00 mmHg
  Mean change from Baseline MAP (mmHg): −3.58 mmHg
  Mean change from Baseline Systolic BP (mmHg): −2.50 mmHg
Non-Anemic, 6 hour
  Mean change from Baseline Diastolic BP (mmHg): −5.88 mmHg
  Mean change from Baseline MAP (mmHg): −8.00 mmHg
  Mean change from Baseline Systolic BP (mmHg): −12.00 mmHg
Non-Anemic, 12 hour
  Mean change from Baseline Diastolic BP (mmHg): −1.63 mmHg
  Mean change from Baseline MAP (mmHg): −3.78 mmHg
  Mean change from Baseline Systolic BP (mmHg): −7.88 mmHg
Non-Anemic, 24 hour
  Mean change from Baseline Diastolic BP (mmHg): −0.88 mmHg
  Mean change from Baseline MAP (mmHg): −8.00 mmHg
  Mean change from Baseline Systolic BP (mmHg): −4.25 mmHg
All CKD subjects, oral, same with placebo, data not shown
  blood pressure at 1 and 2 hours post dosing: small increases in blood pressure
